From patent US5741811A, “Polythiophene anti-tumor agents” (Purdue Research Foundation, priority 1996, dated 1998)

Key:
Assay in all cases: NCI human tumor cell line panel growth inhibition
Type in all cases: cell-based
M-14 melanoma cells = details: M14, read-out: Log10 GI50 (converted)
ACHN renal cancer cells = details: read-out: Log10 GI50 (converted)
SF-268 CNS cancer cells = details: read-out: Log10 GI50 (converted)
DLD-1 colon cancer cells = details: Homo sapiens, read-out: Log10 GI50 (converted)
UO-31 renal cancer cells = details: read-out: Log10 GI50 (converted)
[1] = tested on: OVCAR-5 ovarian cancer cells; details: Homo sapiens, read-out: Log10 GI50 (converted)
[2] = tested on: IGROV-1 ovarian cancer cells; details: Homo sapiens, read-out: Log10 GI50 (converted)
[3] = tested on: NCI-H522 lung cancer cells; details: read-out: Log10 GI50 (converted)
TK-10 renal cancer cells = details: Homo sapiens, read-out: Log10 GI50 (converted)
MALME-3M melanoma cells = details: read-out: Log10 GI50 (converted)
[4] = tested on: RXF-393 renal cancer cells; details: Homo sapiens, read-out: Log10 GI50 (converted)
EKVX lung cancer cells = details: read-out: Log10 GI50 (converted)
UACC-257 melanoma cells = details: Homo sapiens, read-out: Log10 GI50 (converted)
SF-295 CNS cancer cells = details: read-out: Log10 GI50 (converted)
[5] = tested on: COLO-205 colon cancer cells; details: Homo sapiens; COLO-205, colon cancer; read-out: Log10 GI50 (converted)
[6] = tested on: NCI-H23 lung cancer cells; details: read-out: Log10 GI50 (converted)
SN12C renal cancer cells = details: read-out: Log10 GI50 (converted)
UACC-62 melanoma cells = details: Homo sapiens, read-out: Log10 GI50 (converted)
[7] = tested on: KM20L2 colon cancer cells; details: Homo sapiens, KM-20L2, read-out: Log10 GI50 (converted)
[8] = tested on: HCT-15 colon cancer cells; details: Homo sapiens, read-out: Log10 GI50 (converted)
[9] = tested on: CAKI-1 renal cancer cells; details: Homo sapiens; CAKI-1, renal cancer; read-out: Log10 GI50 (converted)
[10] = tested on: NCI-H322M lung cancer cells; details: Homo sapiens, read-out: Log10 GI50 (converted)
[11] = tested on: LXPL-529 lung cancer cells; details: Homo sapiens, read-out: Log10 GI50 (converted)
A-498 renal cancer cells = details: Homo sapiens, A498, read-out: Log10 GI50 (converted)
[12] = tested on: NCI-H226 lung cancer cells; details: Homo sapiens, read-out: Log10 GI50 (converted)
LOX IMVI melanoma cells = details: read-out: Log10 GI50 (converted)
HOP-62 lung cancer cells = details: Homo sapiens, read-out: Log10 GI50 (converted)
[13] = tested on: NCI-H460 lung cancer cells; details: Homo sapiens, read-out: Log10 GI50 (converted)
786-0 renal cancer cells = details: read-out: Log10 GI50 (converted)
SK-MEL-2 melanoma cells = details: read-out: Log10 GI50 (converted)
HT29 colon cancer cells = details: Homo sapiens, HT-29, read-out: Log10 GI50 (converted)
[14] = tested on: A549/ATCC lung cancer cells; details: Homo sapiens, read-out: Log10 GI50 (converted)
[15] = tested on: OVCAR-3 ovarian cancer cells; details: Homo sapiens; OVCAR-3, ovarian cancer; read-out: Log10 GI50 (converted)
SNB-75 CNS cancer cells = details: Homo sapiens, read-out: Log10 GI50 (converted)
[16] = tested on: HCC-2998 colon cancer cells; details: Homo sapiens, read-out: Log10 GI50 (converted)
HOP-18 lung cancer cells = details: Homo sapiens, read-out: Log10 GI50 (converted)
[17] = tested on: SK-OV-3 ovarian cancer cells; details: Homo sapiens, read-out: Log10 GI50 (converted)
U251 CNS cancer cells = details: Homo sapiens, U-251, read-out: Log10 GI50 (converted)
[18] = tested on: RXF-631 renal cancer cells; details: Homo sapiens, read-out: Log10 GI50 (converted)

Question: With `CC(=O)OCc1ccc(-c2ccc(-c3cccs3)s2)s1` as the compound, how does the GI50 (M-14 melanoma cells) read?
Answer: 39.8 µM

Question: And the GI50 (ACHN renal cancer cells)?
Answer: 17.8 µM

Question: What about the GI50 (SF-268 CNS cancer cells) of the same compound?
Answer: 24.5 µM

Question: And the GI50 (DLD-1 colon cancer cells)?
Answer: < 0.01 µM

Question: And the GI50 (UO-31 renal cancer cells)?
Answer: 18.6 µM

Question: What about the GI50 [1] of the same compound?
Answer: 26.3 µM

Question: And the GI50 [2]?
Answer: 5.01 µM

Question: What about the GI50 [3] of the same compound?
Answer: 13.2 µM

Question: And the GI50 (TK-10 renal cancer cells)?
Answer: 0.12 µM

Question: What about the GI50 (MALME-3M melanoma cells) of the same compound?
Answer: 32.4 µM

Question: What about the GI50 [4] of the same compound?
Answer: 18.2 µM

Question: What about the GI50 (EKVX lung cancer cells) of the same compound?
Answer: 24.5 µM

Question: And the GI50 (UACC-257 melanoma cells)?
Answer: 0.0933 µM

Question: What about the GI50 (SF-295 CNS cancer cells) of the same compound?
Answer: 18.2 µM

Question: And the GI50 [5]?
Answer: 0.437 µM

Question: What about the GI50 [6] of the same compound?
Answer: 19.5 µM

Question: What about the GI50 (SN12C renal cancer cells) of the same compound?
Answer: 28.8 µM

Question: And the GI50 (UACC-62 melanoma cells)?
Answer: 17 µM

Question: What about the GI50 [7] of the same compound?
Answer: 0.132 µM

Question: And the GI50 [8]?
Answer: 50.1 µM

Question: What about the GI50 [9] of the same compound?
Answer: 0.0182 µM

Question: And the GI50 [10]?
Answer: 19.5 µM

Question: What about the GI50 [11] of the same compound?
Answer: < 0.01 µM

Question: And the GI50 (A-498 renal cancer cells)?
Answer: 0.0437 µM

Question: What about the GI50 [12] of the same compound?
Answer: 0.324 µM

Question: What about the GI50 (LOX IMVI melanoma cells) of the same compound?
Answer: 24 µM

Question: And the GI50 (HOP-62 lung cancer cells)?
Answer: 24 µM

Question: And the GI50 [13]?
Answer: 1.51 µM

Question: What about the GI50 (786-0 renal cancer cells) of the same compound?
Answer: 18.6 µM

Question: And the GI50 (SK-MEL-2 melanoma cells)?
Answer: 72.4 µM

Question: And the GI50 (HT29 colon cancer cells)?
Answer: 30.2 µM

Question: What about the GI50 [14] of the same compound?
Answer: 6.61 µM

Question: What about the GI50 [15] of the same compound?
Answer: 0.0257 µM

Question: And the GI50 (SNB-75 CNS cancer cells)?
Answer: < 0.01 µM

Question: And the GI50 [16]?
Answer: 24.5 µM

Question: And the GI50 (HOP-18 lung cancer cells)?
Answer: 2.34 µM

Question: And the GI50 [17]?
Answer: 91.2 µM

Question: What about the GI50 (U251 CNS cancer cells) of the same compound?
Answer: < 0.01 µM

Question: And the GI50 [18]?
Answer: < 0.01 µM
